# Laboratory results reported in ChEMBL document CHEMBL1201862, “PubChem BioAssay data set” (2004).
# Several values for one entry are separate records, joined by “and”; a condition that tells them apart may be missing. Equal entries are not always repeated.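 Cultured in 96-well plates, cells were exposed to test compound for 48 hours across five concentrations. Abbreviation: GI50, concentration required for 50% inhibition of growth.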 Activity calls are given as the source filed them. No stated cut-off is given here; in the data, active = GI50 up to about 1.1 µM and inactive = higher.
# How the values were obtained:
# Experiment in all cases: NCI tumour cell line growth inhibition, 48 h
# MCF7 = tested on: MCF7
# HL-60 = tested on: HL-60
# SK-MEL-2 = tested on: SK-MEL-2
# SNB-19 = tested on: SNB-19
# SK-OV-3 = tested on: SK-OV-3
# 786-0 = tested on: 786-0
# SK-MEL-28 = tested on: SK-MEL-28
# HCT-116 = tested on: HCT-116
# LOX IMVI = tested on: LOX IMVI
# NCI-H23 = tested on: NCI-H23
# HOP-92 = tested on: HOP-92
# OVCAR-5 = tested on: OVCAR-5
# ACHN = tested on: ACHN
# Malme-3M = tested on: Malme-3M
# SF-539 = tested on: SF-539
# K562 = tested on: K562
# COLO 205 = tested on: COLO 205
# M14 = tested on: M14
# RPMI-8226 = tested on: RPMI-8226
# IGROV-1 = tested on: IGROV-1
# A549 = tested on: A549
# NCI/ADR-RES = tested on: NCI/ADR-RES
# SF-295 = tested on: SF-295
# UO-31 = tested on: UO-31
# T47D = tested on: T47D
# EKVX = tested on: EKVX
# RXF 393 = tested on: RXF 393
# TK-10 = tested on: TK-10
# MOLT-4 = tested on: MOLT-4
# CCRF-CEM = tested on: CCRF-CEM
# NCI-H460 = tested on: NCI-H460
# HT-29 = tested on: HT-29
# SR = tested on: SR
# U-251 = tested on: U-251
# UACC-257 = tested on: UACC-257
# HCC 2998 = tested on: HCC 2998
# SNB-75 = tested on: SNB-75
# Hs-578T = tested on: Hs-578T
# OVCAR-8 = tested on: OVCAR-8
# UACC-62 = tested on: UACC-62
# DU-145 = tested on: DU-145
# HOP-62 = tested on: HOP-62
# SK-MEL-5 = tested on: SK-MEL-5
# A498 = tested on: A498
# SF-268 = tested on: SF-268
# NCI-H226 = tested on: NCI-H226
# MDA-MB-435 = tested on: MDA-MB-435
# SW-620 = tested on: SW-620
# KM12 = tested on: KM12
# OVCAR-4 = tested on: OVCAR-4
# SN12C = tested on: SN12C
# HCT-15 = tested on: HCT-15
# NCI-H522 = tested on: NCI-H522
# OVCAR-3 = tested on: OVCAR-3
# PC-3 = tested on: PC-3
# MDA-MB-231 = tested on: MDA-MB-231
structure (smiles),measurement,setting,value
CN1C2CC(C#N)C1C=CC2=O (stereo not given),GI50,MCF7,33.3 µM (inactive) and 57.8 µM (inactive)
same,GI50,HL-60,18.9 µM (inactive) and 34.1 µM (inactive)
same,GI50,SK-MEL-2,29 µM (inactive) and 33.7 µM (inactive)
same,GI50,SNB-19,87.1 µM (inactive)
same,GI50,SK-OV-3,43.1 µM (inactive) and 24.8 µM (inactive)
CN1c2ccccc2C(=O)NC12CCNCC2,GI50,786-0,> 100 µM (inactive)
same,GI50,SK-MEL-28,> 100 µM (inactive)
same,GI50,HCT-116,> 100 µM (inactive)
same,GI50,MCF7,> 100 µM (inactive)
same,GI50,LOX IMVI,> 100 µM (inactive)
same,GI50,NCI-H23,> 100 µM (inactive)
same,GI50,HOP-92,> 100 µM (inactive)
same,GI50,HL-60,> 100 µM (inactive)
same,GI50,OVCAR-5,> 100 µM (inactive)
same,GI50,ACHN,> 100 µM (inactive)
same,GI50,Malme-3M,> 100 µM (inactive)
same,GI50,SF-539,> 100 µM (inactive)
same,GI50,K562,> 100 µM (inactive)
same,GI50,COLO 205,> 100 µM (inactive)
same,GI50,M14,> 100 µM (inactive)
same,GI50,RPMI-8226,> 100 µM (inactive)
same,GI50,IGROV-1,> 100 µM (inactive)
same,GI50,A549,> 100 µM (inactive)
same,GI50,NCI/ADR-RES,> 100 µM (inactive)
same,GI50,SF-295,> 100 µM (inactive)
same,GI50,SNB-19,> 100 µM (inactive)
same,GI50,UO-31,> 100 µM (inactive)
same,GI50,SK-OV-3,> 100 µM (inactive)
same,GI50,T47D,> 100 µM (inactive)
same,GI50,EKVX,> 100 µM (inactive)
same,GI50,RXF 393,> 100 µM (inactive)
same,GI50,TK-10,> 100 µM (inactive)
same,GI50,MOLT-4,> 100 µM (inactive)
same,GI50,CCRF-CEM,> 100 µM (inactive)
same,GI50,NCI-H460,> 100 µM (inactive)
same,GI50,HT-29,> 100 µM (inactive)
same,GI50,SR,> 100 µM (inactive)
same,GI50,U-251,> 100 µM (inactive)
same,GI50,UACC-257,> 100 µM (inactive)
same,GI50,HCC 2998,> 100 µM (inactive)
same,GI50,SNB-75,> 100 µM (inactive)
same,GI50,Hs-578T,0.082 µM (active)
same,GI50,OVCAR-8,> 100 µM (inactive)
same,GI50,UACC-62,> 100 µM (inactive)
same,GI50,DU-145,> 100 µM (inactive)
same,GI50,HOP-62,> 100 µM (inactive)
same,GI50,SK-MEL-5,> 100 µM (inactive)
same,GI50,A498,> 100 µM (inactive)
same,GI50,SF-268,> 100 µM (inactive)
same,GI50,NCI-H226,> 100 µM (inactive)
same,GI50,MDA-MB-435,> 100 µM (inactive)
same,GI50,SW-620,> 100 µM (inactive)
same,GI50,KM12,> 100 µM (inactive)
same,GI50,OVCAR-4,> 100 µM (inactive)
Cc1ncc([N+](=O)[O-])n1CC(O)Cn1ccnc1[N+](=O)[O-] (stereo not given),GI50,786-0,> 100 µM (inactive)
same,GI50,SK-MEL-28,> 100 µM (inactive)
same,GI50,SN12C,> 100 µM (inactive)
same,GI50,HCT-116,> 100 µM (inactive)
same,GI50,MCF7,> 100 µM (inactive)
same,GI50,NCI-H23,> 100 µM (inactive)
same,GI50,HL-60,> 100 µM (inactive)
same,GI50,OVCAR-5,> 100 µM (inactive)
same,GI50,ACHN,> 100 µM (inactive)
same,GI50,Malme-3M,> 100 µM (inactive)
same,GI50,SF-539,> 100 µM (inactive)
same,GI50,K562,> 100 µM (inactive)
same,GI50,RPMI-8226,> 100 µM (inactive)
same,GI50,SK-MEL-2,> 100 µM (inactive)
same,GI50,A549,> 100 µM (inactive)
same,GI50,SF-295,> 100 µM (inactive)
same,GI50,EKVX,> 100 µM (inactive)
same,GI50,TK-10,> 100 µM (inactive)
same,GI50,MOLT-4,> 100 µM (inactive)
same,GI50,CCRF-CEM,> 100 µM (inactive)
same,GI50,NCI-H460,> 100 µM (inactive)
same,GI50,HT-29,> 100 µM (inactive)
same,GI50,SR,> 100 µM (inactive)
same,GI50,U-251,> 100 µM (inactive)
same,GI50,UACC-257,> 100 µM (inactive)
same,GI50,HCC 2998,> 100 µM (inactive)
same,GI50,SNB-75,> 100 µM (inactive)
same,GI50,Hs-578T,> 100 µM (inactive)
same,GI50,OVCAR-8,> 100 µM (inactive)
same,GI50,HOP-62,> 100 µM (inactive)
same,GI50,SK-MEL-5,> 100 µM (inactive)
same,GI50,HCT-15,> 100 µM
same,GI50,A498,> 100 µM (inactive)
same,GI50,NCI-H522,> 100 µM (inactive)
same,GI50,SF-268,> 100 µM (inactive)
same,GI50,NCI-H226,> 100 µM (inactive)
same,GI50,OVCAR-3,> 100 µM (inactive)
same,GI50,PC-3,> 100 µM (inactive)
same,GI50,SW-620,> 100 µM (inactive)
same,GI50,KM12,> 100 µM (inactive)
NC(CN(O)N=O)C(=O)O (stereo not given) [LALANOSINE],GI50,LOX IMVI,412 nM (active) and 333 nM (active)
same,GI50,HL-60,11.4 µM (inactive)
same,GI50,OVCAR-5,3.73 µM (inactive) and 4.13 µM (inactive)
same,GI50,ACHN,1.42 µM (inactive) and 1.82 µM (inactive)
same,GI50,SF-539,8.63 µM (inactive)
same,GI50,SK-MEL-2,> 100 µM (inactive) and 70 µM (inactive)
same,GI50,A549,268 nM (active) and 204 nM (active)
same,GI50,NCI/ADR-RES,18.7 µM (inactive)
same,GI50,SF-295,8.36 µM (inactive) and 8.63 µM (inactive)
same,GI50,T47D,87.9 µM (inactive)
same,GI50,MOLT-4,40 µM (inactive) and 29.2 µM (inactive)
same,GI50,HT-29,10.1 µM (inactive) and 17.7 µM (inactive)
same,GI50,OVCAR-8,12.5 µM (inactive) and 23.8 µM (inactive)
same,GI50,DU-145,> 100 µM (inactive)
same,GI50,MDA-MB-231,87.9 µM (inactive)
same,GI50,KM12,304 nM (active) and 360 nM (active)
